Source: article PMC7758017 (Iranian Journal of Pharmaceutical Research : IJPR, 2020)
Read-outs that look alike come from different tables or passages of the source.

Legend:
[1] = human, 10 mg/day p.o., HPLC study, ref [7], cited from earlier work
[2] = system: acetylcholinesterase (AChE); set-up: method as in PMID 10641971; settings: long-lasting, pseudo-irreversible inhibitor; ref [10]; cited from earlier work
in vivo [3] = settings: male, Wistar, rat, im
Description: (§1) An analytical column (Waters Spherisorb S5 W (250 mm × 4.6 i.d.; 5 μm particle size)) with guard column (Waters Spherisorb S5 W (30 mm × 4.6 mm i.d.)) was used for the analysis. The mobile phase contained acetonitrile and 50 mM sodium dihydrogen phosphate (17:83; v/v). The pH was adjusted to 3.1 with phosphoric acid ([13]). The sample volume was 40 µL for plasma samples and 90 µL for brain-tissue samples. All chromatograms were obtained at a conditioned temperature (50 °C), and the flow rate was 1.3 mL/min ([13]).
(§2) Male adult Wistar rats (body weight 230 ± 30 g; Anlab Inc., Prague, Czech Republic) were used for pharmacokinetics study. The animals were kept under recommended conditions: standard laboratory food and tap water were available ad libitum. All experimental procedures and protocols were reviewed and approved by the Ethics Committee of the Faculty of Military Health Sciences, University of Defense, Hradec Kralove, Czech Republic. […] Blood samples were collected directly from the heart into heparinized 1.5 mL polythene tubes after 5, 15, 30, 45, 60, 120 and 240 min, and after 24 h (n = 6; six animals in each time interval). The samples were immediately centrifuged at 3000 ×g for 10 min (10 °C), and the plasma obtained was stored at −80 °C until analysis.
(§3) Standard noncompartmental analysis was performed using Kinetica software, version 4.0 (InnaPhase Corporation, Thermo Fisher Scientific Inc., Waltham, MA, USA). Maximum concentration (Cmax) and the time to the maximum concentration (Tmax) were determined directly from the observed data. The area under the mean plasma concentration–time curve from zero up to infinity (AUCtotal) was determined as the sum of the AUC0–24 h and of the extrapolated part, i.e. the ratio of the concentration predicted at the time interval of 24 h and the terminal rate constant λz. The λz was estimated using linear regression of the log-transformed concentrations at interval from 45 min to 24 h plotted against time. The half-life was calculated as t1/2 = ln(2)/λz. […]

in vivo [4] = settings: male, Wistar, rat
Description: as §1, §2
After perfusion, the skull was opened and the brain was checked visually and subsequently carefully removed; time intervals correspond with blood sampling (5, 15, 30, 45, 60, 120 and 240 min, and after 24 hours; n = 6; the same animals were used). All brains were stored at –80 °C until HPLC analysis ([15]).
Standard noncompartmental analysis was performed using Kinetica software, version 4.0 (InnaPhase Corporation, Thermo Fisher Scientific Inc., Waltham, MA, USA). Maximum concentration (Cmax) and the time to the maximum concentration (Tmax) were determined directly from the observed data. The area under the mean plasma concentration–time curve from zero up to infinity (AUCtotal) was determined as the sum of the AUC0–24 h and of the extrapolated part, i.e. the ratio of the concentration predicted at the time interval of 24 h and the terminal rate constant λz. The λz was estimated using linear regression of the log-transformed concentrations at interval from 45 min to 24 h plotted against time. The half-life was calculated as t1/2 = ln(2)/λz. Other statistical analysis was performed using GraphPad Prism, version 5.0 (GraphPad Software, San Diego, California, USA).
Brain tissues (whole brains) were mechanically crushed under liquid nitrogen. […] Eight-hundred microliter of supernatant was subjected to liquid-liquid extraction as previously described. All assessments were performed in triplicate.

[5] = Plasma pharmacokinetics after single i.m. injection in rats (HPLC-UV); settings: male, Wistar, rat, in vivo, im
Description: as §1, §2, §3

SMILES: COc1cc2c(cc1OC)C(=O)C(CC1CCN(Cc3ccccc3)CC1)C2 (stereo not drawn) [Donepezil]
- CSF concentration ([1]; 12 h after application): 5.2 ng/mL
- CSF concentration ([1]; after 24 h): 7.5 ng/mL

SMILES: CCN(C)C(=O)Oc1cccc([C@H](C)N(C)C)c1 [Rivastigmine]
- duration of AChE inhibition [2]: up to 10 h
- CL/F (in vivo [3]): 690 ± 30 mL/min/kg
- MRT (in vivo [3]): 43.4 min
- Kp at 0 min (in vivo [4]): 0
- Kp at 5 min (in vivo [4]): 1.74
- Kp at 15 min (in vivo [4]): 1.48
- Kp at 30 min (in vivo [4]): 1.7
- Kp at 45 min (in vivo [4]): 1.15
- Kp at 60 min (in vivo [4]): 1.13
- Kp at 120 min (in vivo [4]): 0.176
- Kp at 240 min (in vivo [4]): 0
- Kp at 24 h (in vivo [4]): 0
- concentration at 0 min (in vivo [4]): 0 ng/mL
- concentration at 5 min (in vivo [4]): 5.23 ± 0.76 ng/mL
- concentration at 15 min (in vivo [4]): 4.92 ± 0.62 ng/mL
- concentration at 30 min (in vivo [4]): 4.72 ± 0.51 ng/mL
- concentration at 45 min (in vivo [4]): 2.73 ± 0.32 ng/mL
- concentration at 60 min (in vivo [4]): 2.24 ± 0.22 ng/mL
- concentration at 120 min (in vivo [4]): 0.03 ± 0.02 ng/mL
- concentration at 240 min (in vivo [4]): 0 ng/mL
- concentration at 24 h (in vivo [4]): 0 ng/mL
- Vd/F [5]: 19.8 ± 3.87 L/kg
